Source: PubChem BioAssay (NCI)
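Compound exposure: 48 hours, 5 concentrations, 96-well plates. TGI denotes the concentration required for complete inhibition of growth.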

How the values were obtained:
Test in all cases: NCI-60 cell line screen, 48 h
[1] = tested on: 786-0 renal
[2] = tested on: A498 renal
[3] = tested on: A549 NSCLC
[4] = tested on: ACHN renal
[5] = tested on: BT-549 breast
[6] = tested on: CAKI-1 renal
[7] = tested on: CCRF-CEM leukemia
[8] = tested on: COLO 205 colon
[9] = tested on: DU-145 prostate
[10] = tested on: EKVX NSCLC
[11] = tested on: HCC-2998 colon
[12] = tested on: HCT-116 colon
[13] = tested on: HCT-15 colon
[14] = tested on: HL-60(TB) leukemia
[15] = tested on: HOP-62 NSCLC
[16] = tested on: HOP-92 NSCLC
[17] = tested on: HS 578T breast
[18] = tested on: HT29 colon
[19] = tested on: IGROV1 ovarian
[20] = tested on: K-562 leukemia
[21] = tested on: KM12 colon
[22] = tested on: LOX IMVI melanoma
[23] = tested on: M14 melanoma
[24] = tested on: MALME-3M melanoma
[25] = tested on: MCF7 breast
[26] = tested on: MDA-MB-231 breast
[27] = tested on: MDA-MB-435
[28] = tested on: MDA-N
[29] = tested on: MOLT-4 leukemia
[30] = tested on: NCI-H226 lung
[31] = tested on: NCI-H23 lung
[32] = tested on: NCI-H460 lung
[33] = tested on: NCI-H522 lung
[34] = tested on: NCI/ADR-RES ovarian
[35] = tested on: OVCAR-3 ovarian
[36] = tested on: OVCAR-4 ovarian
[37] = tested on: OVCAR-5 ovarian
[38] = tested on: OVCAR-8 ovarian
[39] = tested on: PC-3 prostate
[40] = tested on: RPMI-8226 leukemia
[41] = tested on: RXF 393 renal
[42] = tested on: SF-268 CNS
[43] = tested on: SF-295 CNS
[44] = tested on: SF-539 CNS
[45] = tested on: SK-MEL-2 melanoma
[46] = tested on: SK-MEL-28 melanoma
[47] = tested on: SK-MEL-5 melanoma
[48] = tested on: SK-OV-3 ovarian
[49] = tested on: SN12C renal
[50] = tested on: SNB-19 CNS
[51] = tested on: SNB-75 CNS
[52] = tested on: SR leukemia
[53] = tested on: SW-620 colon
[54] = tested on: T-47D breast
[55] = tested on: TK-10 renal
[56] = tested on: U251 CNS
[57] = tested on: UACC-257 melanoma
[58] = tested on: UACC-62 melanoma
[59] = tested on: UO-31 renal
[60] = tested on: DMS 273 small cell lung
[61] = tested on: KM20L2 colon
[62] = tested on: LXFL 529 NSCLC
[63] = tested on: M19-MEL melanoma
[64] = tested on: RXF-631 renal
[65] = tested on: SNB-78 CNS
[66] = tested on: XF 498 CNS

Measured: TGI

N#CC(c1ccccc1)N1CCCN(C(C#N)c2ccccc2)C1c1ccccc1O (centres undefined)
> 100 µM: [1] | [2] | [3] | [4] | [5] | [6] | [7] | [8] | [9] | [10] | [11] | [12] | [13] | [14] | [15] | [16] | [17] | [18] | [19] | [20] | [21] | [22] | [23] | [24] | [25] | [26] | [27] | [28] | [29] | [30] | [31] | [32] | [33] | [34] | [35] | [36] | [37] | [38] | [39] | [40] | [41] | [42] | [43] | [44] | [45] | [46] | [47] | [48] | [49] | [50] | [51] | [52] | [53] | [54] | [55] | [56] | [57] | [58] | [59]

Cc1ccc2c(c1)C(=O)C(Cc1ccccc1C(=O)O)C2 (centres undefined)
> 100 µM: [1] | [2] | [3] | [4] | [5] | [6] | [7] | [8] | [9] | [10] | [11] | [12] | [13] | [14] | [15] | [16] | [17] | [18] | [19] | [20] | [21] | [22] | [23] | [24] | [25] | [26] | [27] | [28] | [29] | [30] | [31] | [32] | [33] | [34] | [35] | [36] | [37] | [38] | [39] | [40] | [41] | [42] | [43] | [44] | [45] | [46] | [47] | [48] | [49] | [50] | [51] | [52] | [53] | [54] | [55] | [56] | [57] | [58] | [59]

Cc1oc2c(C)c(O)c3c(c2c1C1(C)OCCO1)C(=O)C=C(Cl)C3=O
> 100 µM: [1] | [2] | [3] | [4] | [6] | [7] | [8] | [60] | [10] | [12] | [13] | [14] | [15] | [16] | [18] | [19] | [20] | [21] | [61] | [22] | [62] | [23] | [63] | [29] | [30] | [31] | [32] | [33] | [35] | [36] | [37] | [38] | [40] | [41] | [64] | [42] | [43] | [44] | [45] | [46] | [47] | [49] | [50] | [65] | [52] | [53] | [55] | [56] | [57] | [59] | [66]
